Laboratory results taken from patent publication US20070087364A1, “In vitro erythroid micronucleus assay for genotoxicity” (Massachusetts Institute of Technology, priority 2005, published 2007).
Entries after “also recorded” stand apart in the source; their conditions may differ.

Tests used:
[1] = tested on: Lin^− bone marrow cells; test: erythropoietic growth of Lin− bone marrow quantified by flow cytometry (Ter-119/CD71) and total cell counts; format: cell-based, mouse; conditions: for effect on erythropoietic growth (erythropoietic flow cytometry), in words: preliminary flow cytometric studies, Lin− BM from C57BL/6J mice
Procedure: FIG. 13 is a bar graph of data obtained from experiments performed to determined the effect of Epo on the erythropoietic growth of Lin− bone marrow cells. Lin^− bone marrow cells were cultured for 1 day in media containing serum along with Epo at variable concentrations. Epo was removed from the culture media at the end of 1 day, and culture was continued for 2 more days in media with serum. At the end of the third day, the resulting populations were removed from culture and erythropoietic growth was quantified as the product of total cell counts and flow cytometric region fractions. Specifically, erythroid-specific growth at two late stages was calculated for each culture by taking the product of the total cell count and the fraction of the population found to have the indicated surface phenotype (determined by flow cytometry). These erythroid growth values were then normalized to the number of Lin^− cells seeded.
Studies were conducted by stimulating Lin^− mouse BM with specifically defined media formulations for 24 hours before replacing the medium to a minimal erythroid-differentiation medium (EDM) and culturing for an additional 2-3 days. This EDM contains 20% FBS, 2 mM L-glutamine, and 0.1 mM β-mercaptoethanol in IMDM, whereas the “Day 1” medium consists of IMDM with 15% FBS, 2 mM L-glutamine, 0.1 mM β-mercaptoethanol, 1% BSA, 200 μg holo-transferrin, 10 μg/mL insulin as well as further supplements (some specific media formulations listed in Table I). Upon harvest, the number of late-stage erythroid cells and enucleated erythrocytes produced over the culture period was analyzed. […] Although the most relevant endpoint for these cultures is PCEs-produced per primary BM cell, the number of R4 and R5 cells in the post-culture population, as measured by flow ctyometry, provided a reasonable metric of PCE content for early screening studies. More rigorous quantification, via histological analysis, was then employed in a more detailed analysis to generate FIGS. 11, 12, 14 and 16.
As shown above, short-term erythropoietic culture can be used to detect genotoxic exposure. Quantitative studies on the erythropoietic growth of Lin^− BM after stimulus with physiologic erythropoietic factors were used to further improve the culture methodology and thus increase the potential throughput of the in vitro erythroid MN assay described here. Initially, flow cytometry was used to define late-erythroid cells by subdividing the Ter-119^+ population based on CD71 expression (regions shown in FIG. 4) to estimate the fraction of a culture that acquired late-erythroid surface markers. The products of flow cytometric region statistics and total cell counts were calculated and then normalized to input cell numbers to quantify erythropoietic growth in a culture.
Table II. in vitro erythroid growth is modulated by physiologic erythropoietic stimuli. The culture conditions listed on the left-hand side of the table specify the environment in which a growth measurement was made. All soluble growth factors used in these experiments were removed from culture after 1 day. An X in this first section of the table indicates the variable parameter found to have a significant erythropoietic growth-effect. The measured effect of that parameter on erythropoietic growth is then given on the right-hand side of the table. In this right-hand section of the table, the first item listed is the defining surface phenotype of the erythropoietic population. […] Finally, the level of significance (P value) is given. Note that the first 4 entries to this table were taken from FIG. 13; other entries were obtained from similar figures. P values were determined by the two-tailed t test, except for the 3 italicized P values, which were determined using the one-tailed t test.

[2] = tested on: Lin^− bone marrow cells; test: PCE growth of Lin− bone marrow by acridine orange histology, fractional-factorial design with regression; format: cell-based, mouse; conditions: for effect on PCE production / erythropoietic growth, statistical analysis of FIG. 12: primary and secondary effects, untreated cultures
Procedure: (FIG. 14A) Lin^− bone marrow cells were cultured for 1 day in media containing serum and various combinations of soluble growth factors as listed on the abscissa; these specific 6-factor combinations constitute an orthogonal fractional-factorial design (also represented in Table 1). After 1 day, all soluble erythropoietic growth factors were removed and the cells were cultured for either 2 or 3 additional days in medium with serum. At harvest, the cells were removed from culture and late erythropoietic growth was quantified. For each culture, PCE numbers were calculated by taking the product of the total cell count and the PCE fraction of the population as determined by differential cell counting after staining with acridine orange (>2000 cells scored per culture). Growth calculations were normalized to input cell numbers and are presented as the mean of 3 independent cultures +/− the standard deviation. (FIG. 14B) Culture methods that yielded similar populations at harvest were grouped into subsets (α, β, γ, and δ); growth characteristics for these subsets were quantified and representative micrographs were acquired. […] Cultures exposed to SCF but not Epo (subset γ) expanded approximately 2.5-fold in total cell numbers, but again contained less than 3% PCEs. Cultures exposed to both Epo and SCF (subset β) expanded approximately 13-fold in total cell numbers and yielded populations in which approximately 31% of all cells are PCEs. Finally, cultures exposed to both Epo and Dex but not SCF (subset δ) expanded approximately 4-fold while producing populations in which approximately 51% of all cells are PCEs. Growth calculations are presented as the mean of all cultures in a subset ± the standard deviation. Scale bars: 20 μm.
Table I is an experimental design chart that provides the specific details of the experimental conditions that were examined to generate FIGS. 11, 12, 14 and 16. Specifically, this experimental design is a two-level, minimum-aberration, fractional-factorial design of resolution IV (a 2IV^6-2 minimum-aberration design). The full-factorial design was not performed because an experiment of this size (2^6 cultures for each biological singlet) was logisitically infeasible. This experiment was designed in order to estimate all the main (primary) interactions between the culture response (PCEs produced) and the individual parameters included in the design. In addition, many of the secondary interactions (between the culture response and various parameter-pairs) were estimable by conducting this design (see FIGS. 12 and 16), although some of these secondary interactions were confounded with other secondary interactions. Each condition listed in the design table was tested in biological triplicate, and each triplicate set was cultured under three different atmospheric conditions, to yield a total of nine culture wells per listed condition.
Furthermore, some variability between various Lin^− BM isolations was observed over the course of preliminary flow cytometric studies. Therefore, a definitive study was conducted that used aliquots of a large, well-mixed Lin^− population that was isolated from the combined BM of 15 mice. In this study, flow cytometry was replaced by histological analysis to provide more rigorous quantification of a population's PCE content. This study was designed to estimate the relative stimulatory effect of various, previously-identified erythroid growth factors on culture performance. Specifically a minimum-aberration, fractional-factorial experimental design (a 2IV^6-2 minimum-aberration design) was conducted to estimate all the main (primary) interactions between the culture response, which was PCEs produced (as assessed by histology), and the individual parameters included in the design (see Table I, and FIGS. 11, 12, 14 and 16). […]

[3] = complete multi-linear regression model (n3=27), parameters scaled 0 to 1
[4] = reduced multi-linear regression model (n3=17), FIG. 16

For `C[C@@H]1C[C@H]2[C@@H]3CCC4=CC(=O)C=C[C@]4(C)[C@@]3(F)[C@@H](O)C[C@]2(C)[C@@]1(O)C(=O)CO` [Dex, Dexamethasone, reference compound], the “Avg Growth +/− SD” value ([1]; [Dex] = 1 μM, Ter-119+ CD71+, Epo 5 U/mL, SCF 0, 72 h, CO2 0.5%, 20% O2, Fn 2, Ins 10, IGF-I 10 ng/mL) was 0.278 +/− 0.102 per Lin^− cell seeded, the “Avg Growth +/− SD” value ([1]; [Dex] = 1 μM, Ter-119+ CD71−, Epo 5 U/mL, SCF 0, 72 h, CO2 0.5%, 20% O2, Fn 2, Ins 10, IGF-I 0) was 0.016 +/− 0.006 per Lin^− cell seeded and the “Avg Growth +/− SD” value ([1]; [Dex] = 10 μM, Ter-119+ CD71−, Epo 5 U/mL, SCF 0, 72 h, CO2 0.5%, 20% O2, Fn 2, Ins 10, IGF-I 0) was 0.028 +/− 0.016 per Lin^− cell seeded. The “Scaled Estimate (model parameter, PCE growth)” value (“Scaled Estimate” below) [2, 3] was −0.298 and the “Scaled Estimate” value [2, 4] was −0.333.

For “IGF-I: Insulin-like Growth Factor I (R&D systems)”, the “effect on erythropoietic growth (erythropoietic flow cytometry), in words” value [1] was “had an effect on erythroid cell numbers”, the “Scaled Estimate” value [2, 3] was −0.231 and the “Scaled Estimate” value [2, 4] was −0.200.

With Ins: recombinant human insulin (Sigma) the “Avg Growth +/− SD” value ([1]; [Ins] = 10 μg/mL, Ter-119+ CD71+, Epo 5 U/mL, SCF 0, 72 h, 5% CO2, 20% O2, Fn 0) was 1.743 +/− 0.107 per Lin^− cell seeded, the “Avg Growth +/− SD” value ([1]; [Ins] = 10 μg/mL, Ter-119+ CD71−, Epo 5 U/mL, SCF 0, 72 h, 5% CO2, 20% O2, Fn 0) was 0.382 +/− 0.008 per Lin^− cell seeded and the “Avg Growth +/− SD” value ([1]; [Ins] = 100 μg/mL, Ter-119+ CD71+, Epo 5 U/mL, SCF 0, 72 h, 5% CO2, 20% O2, Fn 0) was 2.096 +/− 0.121 per Lin^− cell seeded. For the same molecule, the “Avg Growth +/− SD” value ([1]; [Ins] = 100 μg/mL, Ter-119+ CD71−, Epo 5 U/mL, SCF 0, 72 h, 5% CO2, 20% O2, Fn 0) was 0.427 +/− 0.015 per Lin^− cell seeded.

With “Epo: erythropoietin (Amgen), essential component of the erythropoietic media formulation” the “Avg Growth +/− SD” value ([1]; [Epo] = 2 U/mL (low-growth comparison), Ter-119+ CD71−, SCF 0, 72 h, 5% CO2, 20% O2, Fn 2, Dex 0, Ins 10, IGF-I 0) was 0.141 +/− 0.019 per Lin^− cell seeded, the “Avg Growth +/− SD” value ([1]; [Epo] = 5 U/mL, Ter-119+ CD71−, SCF 0, 72 h, 5% CO2, 20% O2, Fn 2 μg/sq cm, Dex 0, Ins 10 μg/mL, IGF-I 0) was 0.307 +/− 0.022 per Lin^− cell seeded and the “Avg Growth +/− SD” value ([1]; [Epo] = 10 U/mL, Ter-119+ CD71−, SCF 0, 72 h, 5% CO2, 20% O2, Fn 2, Dex 0, Ins 10, IGF-I 0) was 0.380 +/− 0.050 per Lin^− cell seeded. For the same molecule, the “Avg Growth +/− SD” value ([1]; [Epo] = 50 U/mL, Ter-119+ CD71−, SCF 0, 72 h, 5% CO2, 20% O2, Fn 2, Dex 0, Ins 10, IGF-I 0) was 0.312 +/− 0.030 per Lin^− cell seeded, the “Avg Growth +/− SD” value ([1]; [Epo] = 500 U/mL, Ter-119+ CD71−, SCF 0, 72 h, 5% CO2, 20% O2, Fn 2, Dex 0, Ins 10, IGF-I 0) was 0.314 +/− 0.019 per Lin^− cell seeded and the “level at which the erythropoietic stimulatory effect reached a maximum” value ([1]; cultured Lin− BM, Epo present for first day) was “approximately 10 U/mL”. The “relative size of growth effects by multi-linear regression, in words” value ([2]; FIG. 16) was “largest eyrthropoietic growth effect”, the “Scaled Estimate” value [2, 3] was 3.136 and the “effect on PCE production / erythropoietic growth, statistical analysis of FIG. 12” value [2] was “major factors influencing erythropoietic growth; also recorded: the largest, and most statistically-significant, effect”. For the same molecule, the “Scaled Estimate” value [2, 4] was 3.130.

“SCF: stem cell factor (R&D systems), soluble erythropoietic growth factor” was tested, and the “Avg Growth +/− SD” value ([1]; [SCF] = 1 ng/mL, Ter-119+ CD71+, Epo 5 U/mL, 72 h, 5% CO2, 20% O2, Fn 2, Ins 10) was 0.897 +/− 0.053 per Lin^− cell seeded, the “Avg Growth +/− SD” value ([1]; [SCF] = 1 ng/mL, Ter-119+ CD71−, Epo 5 U/mL, 72 h, 5% CO2, 20% O2, Fn 2, Ins 10) was 0.275 +/− 0.026 per Lin^− cell seeded and the “Avg Growth +/− SD” value ([1]; [SCF] = 1 ng/mL, Ter-119+ CD71−, Epo 5 U/mL, 96 h, 5% CO2, 20% O2, Fn 2, Ins 10) was 0.372 +/− 0.052 per Lin^− cell seeded. The “Avg Growth +/− SD” value ([1]; [SCF] = 10 ng/mL, Ter-119+ CD71+, Epo 3.5 U/mL, 72 h, 5% CO2, 20% O2, Fn 2, Ins 10) was 1.512 +/− 0.100 per Lin^− cell seeded, the “Avg Growth +/− SD” value ([1]; [SCF] = 10 ng/mL, Ter-119+ CD71+, Epo 5 U/mL, 72 h, 5% CO2, 20% O2, Fn 2, Ins 10) was 1.448 +/− 0.155 per Lin^− cell seeded and the “Avg Growth +/− SD” value ([1]; [SCF] = 10 ng/mL, Ter-119+ CD71−, Epo 3.5 U/mL, 72 h, 5% CO2, 20% O2, Fn 2, Ins 10) was 0.202 +/− 0.023 per Lin^− cell seeded. For the same molecule, the “Avg Growth +/− SD” value ([1]; [SCF] = 10 ng/mL, Ter-119+ CD71−, Epo 5 U/mL, 96 h, 5% CO2, 20% O2, Fn 2, Ins 10) was 0.608 +/− 0.081 per Lin^− cell seeded, the “Avg Growth +/− SD” value ([1]; [SCF] = 100 ng/mL, Ter-119+ CD71+, Epo 5 U/mL, 72 h, 5% CO2, 20% O2, Fn 2, Ins 10) was 1.929 +/− 0.154 per Lin^− cell seeded and the “Avg Growth +/− SD” value ([1]; [SCF] = 100 ng/mL, Ter-119+ CD71−, Epo 5 U/mL, 72 h, 5% CO2, 20% O2, Fn 2, Ins 10) was 0.369 +/− 0.041 per Lin^− cell seeded. For the same molecule, the “effect on erythropoietic growth (erythropoietic flow cytometry), in words” value [1] was “did induce increasing erythropoietic growth up to the maximum concentration tested”, the “Scaled Estimate” value [2, 3] was 0.166 and the “PCEs among all cells of the harvested population” value ([2]; growth factors present for 1 day, then 2 or 3 additional days, acridine orange differential counts (FIG. 14B)) was “less than 3%”. For the same molecule, the “expansion in total cell numbers” value ([2]; growth factors present for 1 day, then 2 or 3 additional days, mean of all cultures in a subset (FIG. 14B)) was “approximately 2.5 fold”, the “effect on PCE production / erythropoietic growth, statistical analysis of FIG. 12” value [2] was “major factors influencing erythropoietic growth; also recorded: next largest effects” and the “Scaled Estimate” value [2, 4] was 0.138.
